Test systems include HOP-92; NCI-H226; NCI-H460; 786-0; COLO 205; CCRF-CEM; SR; SK-MEL-28; HCC 2998; SK-OV-3; SN12C; ACHN; SNB-19; HT-29; M14; HCT-116; MCF7; NCI/ADR-RES; DU-145.
What all share (test): inhibition of tumour cell growth, NCI panel, 48 h

Molecules are shown by their SMILES.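 Compound exposure: 48 hours, 5 concentrations, 96-well plates. Abbreviation: GI50, concentration required for 50% inhibition of growth.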 Calls of active or inactive are those of the source. Cut-off read from the data, not from the text of the source: active = GI50 up to about 1.1 µM and inactive = higher.

`Brc1ccc2ns[s+]c2c1`: the GI50 in the assay with HOP-92 is 6.73 µM (inactive); in the assay on NCI-H226, > 26.3 µM (inactive); in the assay on NCI-H460, 3.3 µM (inactive); with 786-0 it was 98.2 µM (inactive); in the assay with COLO 205 it was 4.91 µM (inactive); in the assay on CCRF-CEM, 1.26 µM (inactive). Further, the GI50 is 4.36 µM (inactive) in the assay on SR; 11.9 µM (inactive) in the assay on SK-MEL-28; 5.25 µM (inactive) in the assay with HCC 2998; > 100 µM (inactive) in the assay with SK-OV-3; 14 µM (inactive) with SN12C; 0.897 µM (active) in the assay with ACHN. The GI50 is 29.9 µM (inactive) in the assay on SNB-19, 1.3 µM (inactive) with HT-29, 0.45 µM (active) in the assay with M14 and 2.7 µM (inactive) with HCT-116.

On to `COC(=O)CCSC(=O)Nc1ccc(/N=N/c2ccccc2)cc1`, for which the GI50 in the assay on HOP-92 was 95.7 µM (inactive); with NCI-H226, 60.4 µM (inactive); with NCI-H460 it was 31.6 µM (inactive); in the assay on 786-0, 57.7 µM (inactive); in the assay with COLO 205, 20.3 µM (inactive); with CCRF-CEM, 50.1 µM (inactive). For the same compound, the GI50 in the assay on SR was 30.6 µM (inactive); with SK-MEL-28, > 100 µM (inactive); in the assay with HCC 2998 it was 23.6 µM (inactive); with SK-OV-3, > 100 µM (inactive); in the assay on SN12C, 69 µM (inactive); in the assay on ACHN, 29 µM (inactive). Moreover, the GI50 in the assay on SNB-19 is 32.1 µM (inactive); in the assay with HT-29, 68.5 µM (inactive); in the assay on M14, 70 µM (inactive); in the assay on HCT-116, 59.3 µM (inactive).

In the case of `CCc1n[nH]c(=O)n1-c1ccc2ccccc2c1`, the GI50 in the assay with HOP-92, in the assay on NCI-H226, with NCI-H460, in the assay on 786-0, with COLO 205 and in the assay with CCRF-CEM was > 100 µM (inactive) in each case. Besides, the GI50 in the assay on MCF7, in the assay on SR, in the assay with SK-MEL-28, with HCC 2998, in the assay with SK-OV-3 and with NCI/ADR-RES was > 100 µM (inactive) throughout. Besides, the GI50 in the assay with SN12C, in the assay with ACHN, in the assay with SNB-19, in the assay with HT-29, in the assay with M14 and with DU-145 was > 100 µM (inactive) throughout. In the assay on HCT-116, the GI50 was > 100 µM (inactive).

For `CCC(=O)C(C)C(=O)C(=O)C(=O)OC` (stereo not given), the GI50 with HOP-92 was > 100 µM (inactive); in the assay with NCI-H226, > 100 µM (inactive); in the assay on NCI-H460, > 100 µM (inactive); with 786-0 it was > 100 µM (inactive); in the assay on COLO 205, > 60.5 µM (inactive); in the assay with CCRF-CEM, > 46.9 µM (inactive). Moreover, the GI50 in the assay with SR, in the assay with SK-MEL-28, in the assay on HCC 2998, with SK-OV-3, in the assay on SN12C and in the assay with ACHN was > 100 µM (inactive) in each case. For the same compound, the GI50 was > 100 µM (inactive) in the assay on SNB-19, 97.1 µM (inactive) with HT-29, > 100 µM (inactive) in the assay with M14 and > 62.8 µM (inactive) in the assay with HCT-116.

For `N#C/C(=C\c1ccccc1Br)C(=O)c1ccccc1`, the GI50 in the assay with HOP-92 is > 100 µM (inactive); with NCI-H226 it was > 54.8 µM (inactive); in the assay with NCI-H460 it was > 92.9 µM (inactive); in the assay on 786-0, 15.8 µM (inactive); with COLO 205, > 65.9 µM (inactive); in the assay with CCRF-CEM, 6.95 µM (inactive). For the same compound, the GI50 with SR was 13.3 µM (inactive); in the assay with SK-MEL-28, > 42.3 µM (inactive); with HCC 2998, > 95.7 µM (inactive); in the assay with SK-OV-3, > 100 µM (inactive); with SN12C it was > 43.3 µM (inactive); in the assay on ACHN, > 53.8 µM (inactive). Moreover, the GI50 in the assay with SNB-19 was 20.4 µM (inactive); in the assay on HT-29, > 57.7 µM (inactive); with M14, > 34.8 µM (inactive); with HCT-116 it was 2.81 µM (inactive).

For `CCCCCCC(O)CC[C@H]1CCC[C@@H](C)N1` (stereo not given in full), the GI50 in the assay with HOP-92 was > 100 µM (inactive); in the assay with NCI-H226 it was > 100 µM (inactive); in the assay on NCI-H460, > 100 µM (inactive); in the assay on 786-0, > 10 µM (inactive); with COLO 205, > 31.6 µM (inactive); with CCRF-CEM, > 100 µM (inactive). Besides, the GI50 is > 100 µM (inactive) in the assay with SR; > 31.6 µM (inactive) in the assay on SK-MEL-28; > 19.9 µM (inactive) in the assay with HCC 2998; > 100 µM (inactive) in the assay on SK-OV-3; > 100 µM (inactive) in the assay on SN12C; > 100 µM (inactive) with ACHN. Further, the GI50 with SNB-19 is > 10 µM (inactive); with HT-29 it was 29 µM (inactive); in the assay on M14, > 100 µM (inactive); in the assay on HCT-116 it was > 100 µM (inactive).

In the case of `CC1=CC(N2C(=O)C(C)=CC2O)NC1=O` (stereo not given), the GI50 with HOP-92, with NCI-H226, in the assay on NCI-H460, with 786-0, with COLO 205 and in the assay with SR was > 100 µM (inactive) in each case. For the same compound, the GI50 in the assay with SK-MEL-28, in the assay on HCC 2998, in the assay with SN12C, in the assay on SNB-19, in the assay with HT-29 and with M14 was > 100 µM (inactive) each time. Also, the GI50 in the assay on HCT-116 is > 100 µM (inactive).

Turning to `Cn1c(C(C#N)c2nc(Cl)ncc2Br)nc2ccccc21` (stereo not given), the GI50 in the assay on HOP-92, with NCI-H226, with NCI-H460, in the assay with 786-0, in the assay with COLO 205 and in the assay with SK-MEL-28 was > 100 µM (inactive) in each case. Besides, the GI50 with SK-OV-3, with NCI/ADR-RES, with SN12C, in the assay with ACHN, in the assay with SNB-19 and in the assay with HT-29 was > 100 µM (inactive) each time. The GI50 in the assay on M14, in the assay on DU-145 and in the assay with HCT-116 was > 100 µM (inactive) each time.

For `CCCOc1ccc(/C(Cl)=C(\C=O)c2ccc(OC)c(OC)c2)cc1OCCC`, the GI50 in the assay with HOP-92 is 18 µM (inactive); with NCI-H226, 13.2 µM (inactive); in the assay on NCI-H460, 7.1 µM (inactive); in the assay on 786-0, 20.8 µM (inactive); with COLO 205 it was 4.22 µM (inactive); with CCRF-CEM it was 3.59 µM (inactive). The GI50 in the assay on SR was 2.52 µM (inactive); in the assay on SK-MEL-28, 7.59 µM (inactive); in the assay on HCC 2998 it was 3.53 µM (inactive); in the assay on SK-OV-3, 30.1 µM (inactive); in the assay on SN12C it was 9.89 µM (inactive); with ACHN, 9.31 µM (inactive). Further, the GI50 in the assay with SNB-19 was 23.1 µM (inactive); with HT-29 it was 5.2 µM (inactive); with M14, 12.7 µM (inactive); with HCT-116, 2.64 µM (inactive).

As to `COc1nc2c(nc(N)n2C2OCC(O)C(O)C2O)c(=O)n1C` (stereo not given), the GI50 in the assay on HOP-92, with NCI-H226, with NCI-H460, in the assay with 786-0, in the assay with COLO 205 and in the assay with CCRF-CEM was > 100 µM (inactive) each time. In addition, the GI50 in the assay on SR, in the assay with SK-MEL-28, in the assay with HCC 2998, in the assay on SK-OV-3, in the assay with SN12C and in the assay on ACHN was > 100 µM (inactive) in each case. Further, the GI50 in the assay on SNB-19, in the assay with HT-29, with M14 and with HCT-116 was > 100 µM (inactive) each time.

Turning to `Cc1cc(CC(=O)NCCO)n(CCO)c(=O)c1`, the GI50 in the assay with HOP-92, with NCI-H460, in the assay with 786-0, in the assay with COLO 205, in the assay with CCRF-CEM and in the assay on SR was > 100 µM (inactive) in each case. For the same compound, the GI50 with SK-MEL-28, in the assay on HCC 2998, in the assay on SN12C, in the assay with ACHN, with SNB-19 and in the assay on HT-29 was > 100 µM (inactive) throughout. Further, the GI50 with M14 and in the assay on HCT-116 was > 100 µM (inactive) throughout.

Take `CC(=O)/N=C1\NC(=O)/C(=C/c2ccc(/C=C3/C(=O)N/C(=N\C(C)=O)N3C)cc2)N1C`: the GI50 in the assay on HOP-92, in the assay with NCI-H226, in the assay with NCI-H460, with 786-0, in the assay with COLO 205 and in the assay with MCF7 was > 100 µM (inactive) in each case. For the same compound, the GI50 in the assay with SK-MEL-28, with HCC 2998, with SK-OV-3, in the assay with NCI/ADR-RES, in the assay on SN12C and in the assay on ACHN was > 100 µM (inactive) throughout. For the same compound, the GI50 in the assay on SNB-19, with HT-29, in the assay with M14, in the assay on DU-145 and in the assay on HCT-116 was > 100 µM (inactive) throughout.

The record behind these values is ChEMBL document CHEMBL1201862, “PubChem BioAssay data set” (2004).
